Assay results as given in PubChem BioAssay AID192 (DTP/NCI, 2004).
Toxic doses and inconclusive results are not listed.

Test system: BDF1 mice, B16 melanoma ip, median survival T/C
Test: NCI In Vivo Anticancer Drug Screen. Data for tumor model B16 Melanoma (intraperitoneal) in B6D2F1 (BDF1) mice
Conditions: endpoint: median survival time, schedule: Q01DX009 (ip), higher = longer survival
Outline: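 In this screen, activity was judged from survival or tumor size in treated versus vehicle-treated tumor-bearing mice, reported as T/C.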

[1] = dose: 100.0 mg/kg/injection, vehicle: saline with Tween-80
[2] = dose: 200.0 mg/kg/injection, vehicle: saline with Tween-80
[3] = dose: 25.0 mg/kg/injection, vehicle: Klucel (hydroxypropylcellulose) (HPC)
[4] = dose: 50.0 mg/kg/injection, vehicle: Klucel (hydroxypropylcellulose) (HPC)
[5] = dose: 100.0 mg/kg/injection, vehicle: Klucel (hydroxypropylcellulose) (HPC)
[6] = dose: 400.0 mg/kg/injection, vehicle: saline with Tween-80
[7] = dose: 25.0 mg/kg/injection, vehicle: saline with Tween-80
[8] = dose: 50.0 mg/kg/injection, vehicle: saline with Tween-80

With `COC(=O)c1cc([N+](=O)[O-])cc([N+](=O)[O-])c1Br` the T/C (dose: 0.37 mg/kg/injection, vehicle: Klucel (hydroxypropylcellulose) (HPC)) was 95 % of control, the T/C (dose: 0.75 mg/kg/injection, vehicle: Klucel (hydroxypropylcellulose) (HPC)) was 101 % of control and the T/C (dose: 1.5 mg/kg/injection, vehicle: Klucel (hydroxypropylcellulose) (HPC)) was 88 % of control.

`CCCC(C)C(C(=O)O)c1ccccc1` (stereo not drawn) was tested, and the T/C [1] was 110 % of control, the T/C [2] was 106 % of control and the T/C (dose: 300.0 mg/kg/injection, vehicle: saline with Tween-80) was 91 % of control.

In the case of `CC(=O)CC(=O)Nc1ccc2ccccc2c1`, the T/C [3] is reported as 93 % of control, the T/C [4] is reported as 90 % of control and the T/C [5] is reported as 93 % of control.

For `NC(=S)N/N=C1/c2cc(Cl)ccc2-c2c(NC(=O)C(Cl)Cl)cc(Cl)cc21`, the T/C [1] was 95 % of control, the T/C [2] was 93 % of control and the T/C [6] was 86 % of control.

In the case of `S=P(NCCNP(=S)(N1CC1)N1CC1)(N1CC1)N1CC1`, the T/C (dose: 12.5 mg/kg/injection, vehicle: Klucel (hydroxypropylcellulose) (HPC)) is reported as 118 % of control and the T/C [3] is reported as 124 % of control.

With `Oc1cc2c3c(c1)c1cc4c(cc1c[n+]3CC2)OCO4` the T/C (dose: 1.56 mg/kg/injection, vehicle: distilled water + Tween-80) was 117 % of control, the T/C (dose: 3.12 mg/kg/injection, vehicle: water) was 115 % of control and the T/C (dose: 3.13 mg/kg/injection, vehicle: distilled water + Tween-80) was 113 % of control. The T/C (dose: 6.25 mg/kg/injection, vehicle: water) was 118 % of control, the T/C (dose: 25.0 mg/kg/injection, vehicle: distilled water + Tween-80) was 119 % of control and the T/C (dose: 50.0 mg/kg/injection, vehicle: water) was 124 % of control.

For `NC(Cn1cc(N(CCCl)CCCl)c(=O)[nH]c1=O)C(=O)O` (stereo not drawn), the T/C (dose: 6.0 mg/kg/injection, vehicle: saline) was 104 % of control and the T/C (dose: 12.0 mg/kg/injection, vehicle: saline) was 115 % of control.

For `CCOC(=O)CN1CCC(C2(c3cc4ccccc4[nH]3)OCCO2)CC1`, the T/C [4] was 105 % of control, the T/C [5] was 93 % of control and the T/C (dose: 200.0 mg/kg/injection, vehicle: Klucel (hydroxypropylcellulose) (HPC)) was 99 % of control.

With `O=C(CC(=O)C(F)(F)C(F)(F)C(F)(F)F)c1csc2ccccc12` the T/C [7] was 97 % of control, the T/C [8] was 100 % of control and the T/C [1] was 92 % of control.

With `CNC(=O)CCCCC(=O)NC` the T/C [8] was 102 % of control, the T/C [1] was 116 % of control and the T/C [2] was 124 % of control. For the same compound, the T/C [6] was 115 % of control.

In the case of `CCCCC#CCOCC(O)CCl` (stereo not drawn), the T/C (dose: 3.13 mg/kg/injection, vehicle: saline with Tween-80) is reported as 118 % of control, the T/C (dose: 6.25 mg/kg/injection, vehicle: saline with Tween-80) is reported as 114 % of control and the T/C [7] is reported as 101 % of control.

With `C[C@H]1CCC/C=C/[C@@H]2C[C@H](O)C[C@H]2[C@H](O)/C=C/C(=O)O1` the T/C (dose: 2.5 mg/kg/injection, vehicle: Klucel (hydroxypropylcellulose) (HPC)) was 116 % of control, the T/C (dose: 5.0 mg/kg/injection, vehicle: Klucel (hydroxypropylcellulose) (HPC)) was 104 % of control and the T/C (dose: 10.0 mg/kg/injection, vehicle: Klucel (hydroxypropylcellulose) (HPC)) was 103 % of control.

In the case of `O=c1[nH]cc(N(CCCl)CCCl)c(=O)[nH]1`, the T/C (dose: 0.05 mg/kg/injection, vehicle: saline with Tween-80) is reported as 95 % of control, the T/C (dose: 0.08 mg/kg/injection, vehicle: saline with Tween-80) is reported as 105 % of control and the T/C (dose: 0.14 mg/kg/injection, vehicle: saline with Tween-80) is reported as 112 % of control. The T/C (dose: 0.19 mg/kg/injection, vehicle: saline) was 107 % of control, the T/C (dose: 0.65 mg/kg/injection, vehicle: saline with Tween-80) was 170 % of control and the T/C (dose: 1.1 mg/kg/injection, vehicle: saline with Tween-80) was 205 % of control. The T/C (dose: 1.5 mg/kg/injection, vehicle: saline) was 185 % of control.

For `C=C(Br)CNS(C)(=O)=O`, the T/C (dose: 6.25 mg/kg/injection, vehicle: saline) was 120 % of control, the T/C (dose: 12.5 mg/kg/injection, vehicle: saline) was 110 % of control and the T/C (dose: 25.0 mg/kg/injection, vehicle: saline) was 113 % of control.
